For this assay, the target named is T1, HCN1 (Mus musculus, UniProt O88704).
T1 construct: full-length HCN1
Kind of assay: two-electrode voltage clamp, channel expressed in Xenopus laevis oocytes (shift in V1/[…]). The format is cell-based. In general terms: Two-electrode voltage clamp holds a large cell at a set potential and records current.

T1 sequence (O88704 whole entry): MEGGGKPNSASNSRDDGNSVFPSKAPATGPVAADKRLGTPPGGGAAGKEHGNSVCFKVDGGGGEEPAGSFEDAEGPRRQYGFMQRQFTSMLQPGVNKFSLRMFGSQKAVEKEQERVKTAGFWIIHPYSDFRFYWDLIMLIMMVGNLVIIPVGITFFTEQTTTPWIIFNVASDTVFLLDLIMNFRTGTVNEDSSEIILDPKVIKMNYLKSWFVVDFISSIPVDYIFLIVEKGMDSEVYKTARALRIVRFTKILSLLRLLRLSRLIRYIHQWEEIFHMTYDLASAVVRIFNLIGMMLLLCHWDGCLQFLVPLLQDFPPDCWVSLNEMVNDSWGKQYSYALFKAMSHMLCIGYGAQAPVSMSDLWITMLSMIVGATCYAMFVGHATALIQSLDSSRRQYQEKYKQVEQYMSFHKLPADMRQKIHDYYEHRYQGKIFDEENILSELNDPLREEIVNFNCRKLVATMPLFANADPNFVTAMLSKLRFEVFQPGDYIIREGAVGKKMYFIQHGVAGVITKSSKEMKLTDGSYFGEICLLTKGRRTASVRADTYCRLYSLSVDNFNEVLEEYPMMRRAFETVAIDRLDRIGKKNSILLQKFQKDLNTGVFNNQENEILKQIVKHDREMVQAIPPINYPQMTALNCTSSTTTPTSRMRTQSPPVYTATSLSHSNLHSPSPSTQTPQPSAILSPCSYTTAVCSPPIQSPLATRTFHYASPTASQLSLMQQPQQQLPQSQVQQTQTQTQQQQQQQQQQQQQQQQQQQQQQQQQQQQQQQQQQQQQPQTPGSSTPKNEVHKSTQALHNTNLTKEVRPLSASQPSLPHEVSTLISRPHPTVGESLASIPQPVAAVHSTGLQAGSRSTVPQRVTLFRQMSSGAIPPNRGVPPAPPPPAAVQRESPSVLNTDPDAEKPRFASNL

As usually defined, the IC50 is the concentration needed to halve the response being measured. Consider `c1ccc2c(c1)N=C(N1CCNCC1)c1ccccc1S2` [NQTP, norquetiapine], for which the IC50 came out at 13.9 ± 0.8 µM.

The record behind these values is PMC11491390, “Inhibition of HCN1 currents by norquetiapine, an active metabolite of the atypical anti-psychotic drug quetiapine” (Frontiers in Pharmacology, 2024).
